In patent publication US20100056520A1, “FORMULATIONS OF PHOSPHOLIPASE ENZYME INHIBITORS” (priority 2006, published 2010):
Values after ≈ are worked out from the molar mass of the structure shown.

Assays:
[1] = Rat oral absorption/bioavailability after single oral dose of 25 mg/kg; format: in vivo, rats; settings: for oral exposure with addition of 2% Tween 80: 2% Tween 80/0.5% MC vehicle; for bioavailability: rat, in vivo, rats, read-out: estimated bioavailability; for bioavailability / oral absorption in rats: single oral dose of 25 mg/kg in 2% Tween/0.5% MC
Source text: (§1) Based on the animal data and solubility in pharmaceutical acceptable excipients, formulation development for first in human studies was undertaken based on this formulation.

[2] = Solubility measured at room temperature in water, acid and basic conditions (HPLC); format: physicochemical
Experimental: The solubility of 4-(3-{5-chloro-1-(diphenylmethyl)-2-[2-({[2-(trifluoromethyl)benzyl]sulfonyl}amino)ethyl]-1H-indol-3-yl}propyl)benzoic acid was measured at room temperature in water, acid and basic conditions.
The solubility of 4-(3-{5-chloro-1-(diphenylmethyl)-2-[2-({[2-(trifluoromethoxy)benzyl]sulfonyl}amino)ethyl]-1H-indol-3-yl}propyl)benzoic acid was measured at room temperature in water, acid and basic conditions.
The solubility of 4-(3-{5-chloro-1-(diphenylmethyl)-2-[2-({[2-fluoro-6-(trifluoromethyl)benzyl]sulfonyl}amino)ethyl]-1H-indol-3-yl}propyl)benzoic acid was measured at room temperature in water, acid and basic conditions.

[3] = Solubility in 2% Tween 80/0.5% methylcellulose vehicle; format: physicochemical; settings: for solubility: 2% Tween 80/0.5% methylcellulose vehicle, aqueous with cosolvent or surfactant or cyclodextrin, read-out: solubility in 2% Tween 80/0.5% methylcellulose (MC) vehicle
Source text: as §1

[4] = tested on: carrageenan-induced paw edema; experiment: Rat carrageenan-induced paw edema (CPE) study; format: in vivo
Experimental: Data from a rat carrageenan-induced paw edema (CPE) study indicated the minimum efficacious exposure of 4-(3-{5-chloro-1-(diphenylmethyl)-2-[2-({[2-(trifluoromethyl)benzyl]sulfonyl}amino)ethyl]-1H-indol-3-yl}propyl)benzoic acid was 1360 ng*hr/ml.

[5] = tested on: ApoE Mice; experiment: Minimum efficacious exposure in ApoE mice; format: in vivo

SMILES	oral exposure with addition of 2% Tween 80 [1]	bioavailability [1] [%]	oral absorption in rats [1]	solubility ([2]; water, acid and basic conditions, aqueous buffer, below the HPLC detection limit, read-out: intrinsic solubility over the pH range of 1 to 11) [µg/mL]	solubility [3] [µg/mL]	solubility ([2]; aqueous solution (water, acid and basic conditions), aqueous buffer, below the HPLC detection limit, read-out: intrinsic solubility of the free acid) [µg/mL]	solubility ([2]; aqueous solution (water, acid and basic conditions), aqueous buffer, read-out: solubility of the anion) [µg/mL]	minimum efficacious exposure [4] [ng·h/mL]	solubility ([2]; water, acid and basic conditions, water, acid and basic conditions, below the HPLC detection limit, read-out: intrinsic solubility in all conditions) [µg/mL]	solubility enhancement by addition of 2% Tween 80 [3] [fold]	solubility in 2% Tween 80/0.5% methylcellulose (MC) vehicle [3] [µg/mL]	minimum efficacious exposure [5] [ng·h/mL]
O=C(O)c1ccc(CCCc2c(CCNS(=O)(=O)Cc3c(F)cccc3C(F)(F)F)n(C(c3ccccc3)c3ccccc3)c3ccc(Cl)cc23)cc1 [4-(3-{5-chloro-1-(diphenylmethyl)-2-[2-({[2-fluoro-6-(trifluoromethyl)benzyl]sulfonyl}amino)ethyl]-1H-indol-3-yl}propyl)benzoic acid]	did not afford adequate oral exposure	< 1	relatively low	< 0.1	115 (≈ 151 µM)	–	–	–	–	–	–	–
O=C(O)c1ccc(CCCc2c(CCNS(=O)(=O)Cc3ccccc3C(F)(F)F)n(C(c3ccccc3)c3ccccc3)c3ccc(Cl)cc23)cc1 [4-(3-{5-chloro-1-(diphenylmethyl)-2-[2-({[2-(trifluoromethyl)benzyl]sulfonyl}amino)ethyl]-1H-indol-3-yl}propyl)benzoic acid]	–	–	–	–	–	< 0.031	0.11 (≈ 0.148 µM)	1360	–	–	–	–
O=C(O)c1ccc(CCCc2c(CCNS(=O)(=O)Cc3ccccc3OC(F)(F)F)n(C(c3ccccc3)c3ccccc3)c3ccc(Cl)cc23)cc1 [4-(3-{5-chloro-1-(diphenylmethyl)-2-[2-({[2-(trifluoromethoxy)benzyl]sulfonyl}amino)ethyl]-1H-indol-3-yl}propyl)benzoic acid]	did not afford adequate oral exposure	~1.8	relatively low	–	496 (≈ 652 µM)	–	–	–	< 0.0212	23.490	498 (≈ 654 µM)	2800
